According to paper PMC4362760, “JAK2^V617F Drives Mcl-1 Expression and Sensitizes Hematologic Cell Lines to Dual Inhibition of JAK2 and Bcl-xL” (PLoS ONE, 2015):
Where “and” joins values, the source holds several entries; their conditions need not be identical. Equal entries are not always repeated.

Assays:
[1] = tested on: Caspase-3/7; test: Caspase-GLO 3/7 Assay, Caspase-3/7 activity divided by cell viability, fold of control; type: cell-based; conditions: for caspase-3 activity, single agent: JAKi-I or ABT-263 alone
[2] = tested on: MV4;11 cells; test: alamarBlue cell viability, JAKi-I/ABT-263 combination, 72 hr, MV4;11; type: cell-based; conditions: MV4;11, 72h, Jaki-1 0 uM
Method: (§1) Transfection of siRNAs was performed using Lipofectamine RNAiMAX according to the manufacturer’s recommendations. […] Caspase-3 activity was determined using the Caspase-GLO 3/7 Assay (Promega) in parallel with the CellTiter-GLO viability assay (Promega). The data are expressed as Caspase-3/7 activity divided by cell viability.
(§2) Caspase-3 activity was determined at each time point. Data are from duplicate samples and are representative of at least three independent experiments. (D-G) Cells were treated in combination as indicated, and cell viability was determined after 72 hr. Data are means of duplicate determinations, and are representative of at least three independent experiments. […] Drugs were added simultaneously, and cell viability was determined after 72 hr. The data were then analyzed using the drug-drug interaction model of Bliss additivity^16 to define dose combinations that were synergistic (values >15; red), antagonistic (values <-15; blue), or without effect (-15<values<15; gray). (I) Model of JAK2/Bcl-2 family inhibitor synergy. JAK2^V617F constitutively phosphorylates and activates STAT3/5, thus enforcing expression of the transcriptional target, Mcl-1. Mcl-1 collaborates with Bcl-XL to oppose apoptosis and support viability.
(§3) Supplementary file pone.0114363.s006.xls: S6 Dataset Cells were treated in combination as indicated, and cell viability was determined using alamarBlue after 72 hr. Data are means of duplicate determinations, and are representative of at least three independent experiments. (XLS) Click here for additional data file.

[3] = tested on: K562 cells; test: alamarBlue cell viability, JAKi-I/ABT-263 combination, 72 hr, K562; type: cell-based; conditions: K562, 72h, Jaki-1 0 uM
Method: as §1, §2, §3

[4] = tested on: Bim binding to Bcl-XL; test: Bim immunoblot of lysates and Bcl-XL immunoprecipitates; type: cell-based
Method: For immunoprecipitation, lysates were prepared in CHAPS lysis buffer and 2 mg of cell lysate was mixed with at least 8 μg of immunoprecipitating antibody overnight at 4°C. The following day, 30 μl of a Protein A- or Protein G-agarose slurry was added for an additional 2 hr. Immunoprecipitates were washed three times in CHAPS lysis buffer, and heated in 1.5x loading buffer at 95°C for 5 min.
as §2

[5] = tested on: JAK2 V617F-positive and -negative leukemia cell lines; test: Drug-drug interaction across leukemia lines: ABT-263 dose shift and Bliss additivity matrix, 72-hr cell viability; type: cell-based; conditions: JAKi-I and ABT-263 0.03-1 μM matrix, 72-hr viability, cell lines carrying JAK2 V617F
Method: as §1, §2

[6] = tested on: Mcl-1; test: Mcl-1 protein level by immunoblotting, quantitation by LiCor Odyssey Imager; type: cell-based
Method: (§4) SET-2, HEL, MV4;11, and K562 cells were obtained from ATCC and cultured as recommended. UKE-1 cells were purchased from Walter Fiedler (University of Hamburg). Cell lysates were either prepared using CHAPS lysis buffer (10 mM HEPES, pH 7.4, 150 mM NaCl, 1% CHAPS) or cell extraction buffer containing 1% Triton X-100, 0.1% SDS, and 0.5% deoxycholate. All buffers were supplemented with protease and phosphatase inhibitor cocktails prior to use.
(§5) Fig 1 Regulation of Mcl-1 and Bcl-XL by JAK2 ^V617F. […] Tyrosine phoshorylation of STAT3 and STAT5 was determined by immunoblotting. […] Constitutive tyrosine phosphorylation of STAT3 and STAT5 was determined by immunoblotting. […] Data represent means +/- standard deviation for two independent determinations each performed in triplicate. […] (G) Quantification of the data shown in (F). Data are expressed as the ratio of intensity of Mcl-1/β-actin for each time point. […] Data are means of duplicate samples and are representative of two independent experiments.
Supplementary file pone.0114363.s003.xls: S3 Dataset Quantitation of western blot data by LiCor Odyssey Imager. (XLS) Click here for additional data file.

[7] = target: Pim2 (Homo sapiens, UniProt Q9P1W9); test: TR-FRET Kinome Pim2; type: binding; conditions: Pim2 Millipore .025(Subs Conc)
From the text: (§6) (XLS) Click here for additional data file.

[8] = target: DYRK1B (Homo sapiens, UniProt Q9Y463); test: TR-FRET Kinome DYRK1B; type: binding; conditions: DYRK1B Invitrogen .05(Subs Conc)
From the text: as §6

[9] = tested on: STAT3 and STAT5 tyrosine phosphorylation; test: Tyrosine phosphorylation of STAT3 and STAT5 by immunoblotting in leukemia cell lines; type: cell-based
Method: as §4, §5

[10] = target: STK16 (Homo sapiens, UniProt O75716); test: TR-FRET Kinome STK16; type: binding; conditions: STK16 Invitrogen IVGN Tracer .05(Subs Conc)
From the text: as §6

[11] = target: MST1 (Homo sapiens, UniProt Q13043); test: TR-FRET Kinome MST1; type: binding; conditions: MST1 Invitrogen .05(Subs Conc)
From the text: as §6

[12] = target: Akt1 (Homo sapiens, UniProt P31749); test: TR-FRET Kinome Akt1; type: binding; conditions: Akt1 Invitrogen .2(Subs Conc)
From the text: as §6

[13] = target: SGK1 (Homo sapiens, UniProt O00141); test: TR-FRET Kinome SGK1; type: binding; conditions: SGK1 Millipore .1(Subs Conc)
From the text: as §6

[14] = target: PKG1A (Homo sapiens, UniProt Q13976); test: TR-FRET Kinome PKG1A; type: binding; conditions: PKG1A Millipore .05(Subs Conc)
From the text: as §6

[15] = target: CDK11; test: TR-FRET Kinome CDK11; type: binding, human; conditions: CDK11 Abbott .025(Subs Conc)
From the text: as §6

[16] = target: DDR1 (Homo sapiens, UniProt Q08345); test: TR-FRET Kinome DDR1; type: binding; conditions: DDR1 Invitrogen .01(Subs Conc)
From the text: as §6

Chain of MST1 (Q13043 whole entry): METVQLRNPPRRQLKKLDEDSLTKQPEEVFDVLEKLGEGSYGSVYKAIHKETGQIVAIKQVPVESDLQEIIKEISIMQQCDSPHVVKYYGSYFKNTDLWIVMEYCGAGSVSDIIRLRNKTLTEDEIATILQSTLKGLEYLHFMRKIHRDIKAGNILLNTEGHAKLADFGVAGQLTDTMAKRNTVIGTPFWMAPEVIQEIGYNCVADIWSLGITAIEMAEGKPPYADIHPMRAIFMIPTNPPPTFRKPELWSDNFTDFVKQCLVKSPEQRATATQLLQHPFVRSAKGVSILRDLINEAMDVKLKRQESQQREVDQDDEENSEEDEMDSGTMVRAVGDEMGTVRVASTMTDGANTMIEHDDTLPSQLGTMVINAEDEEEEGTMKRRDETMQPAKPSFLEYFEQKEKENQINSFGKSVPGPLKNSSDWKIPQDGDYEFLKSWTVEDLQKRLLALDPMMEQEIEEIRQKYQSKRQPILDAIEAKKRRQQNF
Chain of DYRK1B (Q9Y463 whole entry): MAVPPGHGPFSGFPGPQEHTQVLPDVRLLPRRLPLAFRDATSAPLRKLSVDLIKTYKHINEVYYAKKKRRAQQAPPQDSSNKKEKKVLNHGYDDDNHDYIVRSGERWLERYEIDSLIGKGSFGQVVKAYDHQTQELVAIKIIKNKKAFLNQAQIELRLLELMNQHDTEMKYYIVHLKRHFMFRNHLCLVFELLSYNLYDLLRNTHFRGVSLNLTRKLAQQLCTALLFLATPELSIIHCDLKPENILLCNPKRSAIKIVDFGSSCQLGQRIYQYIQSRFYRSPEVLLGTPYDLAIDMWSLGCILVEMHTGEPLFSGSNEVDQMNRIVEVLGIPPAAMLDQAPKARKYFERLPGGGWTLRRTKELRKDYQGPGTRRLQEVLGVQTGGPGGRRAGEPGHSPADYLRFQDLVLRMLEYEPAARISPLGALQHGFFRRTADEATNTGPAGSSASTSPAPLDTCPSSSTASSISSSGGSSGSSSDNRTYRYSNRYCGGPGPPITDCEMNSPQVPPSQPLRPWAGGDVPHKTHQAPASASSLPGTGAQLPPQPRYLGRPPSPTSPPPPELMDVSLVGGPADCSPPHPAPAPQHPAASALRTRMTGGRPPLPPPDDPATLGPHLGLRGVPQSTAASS
Chain of Akt1 (P31749 whole entry): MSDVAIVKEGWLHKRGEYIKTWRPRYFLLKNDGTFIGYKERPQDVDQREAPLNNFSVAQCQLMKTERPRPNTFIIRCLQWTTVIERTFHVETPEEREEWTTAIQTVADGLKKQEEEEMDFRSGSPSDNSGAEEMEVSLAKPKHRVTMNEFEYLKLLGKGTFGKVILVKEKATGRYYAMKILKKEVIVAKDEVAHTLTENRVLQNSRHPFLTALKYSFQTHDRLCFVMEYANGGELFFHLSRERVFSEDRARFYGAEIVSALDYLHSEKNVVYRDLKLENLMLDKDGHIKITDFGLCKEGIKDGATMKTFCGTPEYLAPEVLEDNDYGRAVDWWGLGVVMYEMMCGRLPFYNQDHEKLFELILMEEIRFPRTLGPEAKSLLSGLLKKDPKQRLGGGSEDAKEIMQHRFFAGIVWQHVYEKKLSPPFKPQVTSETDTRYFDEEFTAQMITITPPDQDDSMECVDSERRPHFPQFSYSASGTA
Chain of DDR1 (Q08345 19-913): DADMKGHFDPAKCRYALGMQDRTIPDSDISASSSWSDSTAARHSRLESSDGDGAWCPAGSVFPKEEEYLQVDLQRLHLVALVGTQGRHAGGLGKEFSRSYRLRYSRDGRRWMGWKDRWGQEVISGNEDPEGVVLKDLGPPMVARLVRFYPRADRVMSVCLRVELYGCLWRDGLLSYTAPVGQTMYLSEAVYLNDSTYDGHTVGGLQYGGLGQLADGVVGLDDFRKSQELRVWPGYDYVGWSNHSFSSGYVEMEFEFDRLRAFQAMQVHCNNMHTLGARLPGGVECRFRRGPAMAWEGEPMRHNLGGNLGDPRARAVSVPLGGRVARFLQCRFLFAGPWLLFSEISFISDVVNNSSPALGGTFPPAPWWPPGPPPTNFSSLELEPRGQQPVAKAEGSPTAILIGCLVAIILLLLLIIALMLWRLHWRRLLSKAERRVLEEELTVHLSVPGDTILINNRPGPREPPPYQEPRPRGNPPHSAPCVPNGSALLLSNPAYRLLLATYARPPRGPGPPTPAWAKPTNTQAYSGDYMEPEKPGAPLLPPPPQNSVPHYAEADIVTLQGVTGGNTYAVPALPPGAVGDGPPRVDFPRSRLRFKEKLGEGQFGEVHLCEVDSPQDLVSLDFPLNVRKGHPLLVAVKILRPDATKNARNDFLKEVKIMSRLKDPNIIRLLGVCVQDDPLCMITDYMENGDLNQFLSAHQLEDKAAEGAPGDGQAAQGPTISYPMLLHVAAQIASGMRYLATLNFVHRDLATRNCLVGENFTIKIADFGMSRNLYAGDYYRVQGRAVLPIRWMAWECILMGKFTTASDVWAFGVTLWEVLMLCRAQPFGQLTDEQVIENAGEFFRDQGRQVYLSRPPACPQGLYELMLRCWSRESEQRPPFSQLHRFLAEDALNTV
Chain of PKG1A (Q13976 whole entry): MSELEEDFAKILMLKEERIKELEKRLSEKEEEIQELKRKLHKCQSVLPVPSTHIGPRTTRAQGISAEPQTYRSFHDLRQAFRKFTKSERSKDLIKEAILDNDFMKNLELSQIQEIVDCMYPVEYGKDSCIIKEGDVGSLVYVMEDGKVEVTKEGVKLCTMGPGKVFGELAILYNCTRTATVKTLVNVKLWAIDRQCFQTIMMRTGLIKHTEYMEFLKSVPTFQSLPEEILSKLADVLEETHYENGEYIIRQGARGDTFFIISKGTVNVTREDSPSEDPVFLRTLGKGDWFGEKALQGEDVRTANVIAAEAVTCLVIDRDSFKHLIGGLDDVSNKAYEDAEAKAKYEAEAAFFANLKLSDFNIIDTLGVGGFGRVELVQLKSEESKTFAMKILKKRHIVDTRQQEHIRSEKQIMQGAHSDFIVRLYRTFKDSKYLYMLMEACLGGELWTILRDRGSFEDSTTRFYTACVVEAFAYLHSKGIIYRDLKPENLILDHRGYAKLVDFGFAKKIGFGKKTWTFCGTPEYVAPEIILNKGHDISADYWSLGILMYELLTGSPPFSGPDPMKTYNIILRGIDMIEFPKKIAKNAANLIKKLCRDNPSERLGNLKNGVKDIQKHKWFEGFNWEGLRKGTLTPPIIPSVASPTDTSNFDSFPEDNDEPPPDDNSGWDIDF
Chain of SGK1 (O00141 whole entry): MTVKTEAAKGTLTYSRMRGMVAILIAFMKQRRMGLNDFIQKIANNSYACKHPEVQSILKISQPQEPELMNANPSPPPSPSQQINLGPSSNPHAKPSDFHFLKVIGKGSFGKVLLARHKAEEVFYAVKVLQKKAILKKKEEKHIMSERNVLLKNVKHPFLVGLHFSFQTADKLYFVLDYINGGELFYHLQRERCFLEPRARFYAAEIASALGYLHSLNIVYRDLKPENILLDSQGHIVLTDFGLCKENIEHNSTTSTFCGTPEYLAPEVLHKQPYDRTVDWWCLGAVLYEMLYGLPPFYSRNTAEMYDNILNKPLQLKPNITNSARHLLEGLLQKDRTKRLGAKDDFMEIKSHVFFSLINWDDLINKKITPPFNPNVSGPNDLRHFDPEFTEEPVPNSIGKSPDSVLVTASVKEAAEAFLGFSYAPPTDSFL
Chain of Pim2 (Q9P1W9 whole entry): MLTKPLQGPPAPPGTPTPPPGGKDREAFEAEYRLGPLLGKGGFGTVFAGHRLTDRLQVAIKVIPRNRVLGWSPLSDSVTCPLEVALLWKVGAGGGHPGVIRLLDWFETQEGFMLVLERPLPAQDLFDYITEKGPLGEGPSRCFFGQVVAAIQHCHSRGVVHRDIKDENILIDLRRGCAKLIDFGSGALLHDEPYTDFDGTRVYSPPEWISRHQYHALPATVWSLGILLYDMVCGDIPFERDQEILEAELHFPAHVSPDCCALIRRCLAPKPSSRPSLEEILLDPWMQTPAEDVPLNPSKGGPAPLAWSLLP
Chain of STK16 (O75716 whole entry): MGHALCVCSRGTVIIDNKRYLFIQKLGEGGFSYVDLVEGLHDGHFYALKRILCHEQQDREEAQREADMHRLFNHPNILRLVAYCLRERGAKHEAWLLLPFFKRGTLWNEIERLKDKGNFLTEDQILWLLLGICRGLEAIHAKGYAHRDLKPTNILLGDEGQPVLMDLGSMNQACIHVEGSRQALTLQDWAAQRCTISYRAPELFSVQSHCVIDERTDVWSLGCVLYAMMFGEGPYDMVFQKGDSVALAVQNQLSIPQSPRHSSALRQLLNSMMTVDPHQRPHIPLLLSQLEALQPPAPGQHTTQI

## CC1(C)CCC(c2ccc(Cl)cc2)=C(CN2CCN(c3ccc(C(=O)NS(=O)(=O)c4ccc(N[C@H](CCN5CCOCC5)CSc5ccccc5)c(S(=O)(=O)C(F)(F)F)c4)cc3)CC2)C1 [ABT-263]
[1]; JAKi-I 6 hr pretreatment followed by ABT-263, within four hours, cell lines harboring JAK2 V617F
  caspase-3 activity, combination: synergistic induction
[1]
  caspase-3 activity, single agent: neither JAKi-I nor ABT-263 alone induced caspase-3 activity
[2]; ABT-263 0.003 uM
  Viability (% Inhibiton): 0%
[2]; ABT-263 0.01 uM
  Viability (% Inhibiton): 1%
[2]; ABT-263 0.03 uM
  Viability (% Inhibiton): 0%
[2]; ABT-263 0.1 uM
  Viability (% Inhibiton): 23%
[2]; ABT-263 0.3 uM
  Viability (% Inhibiton): 30%
[2]; ABT-263 1 uM
  Viability (% Inhibiton): 29%
[3]; ABT-263 0.003 uM
  Viability (% Inhibiton): 0%
[3]; ABT-263 0.01 uM
  Viability (% Inhibiton): 0%
[3]; ABT-263 0.03 uM
  Viability (% Inhibiton): 0%
[3]; ABT-263 0.1 uM
  Viability (% Inhibiton): 0%
[3]; ABT-263 0.3 uM
  Viability (% Inhibiton): 10%
[3]; ABT-263 1 uM
  Viability (% Inhibiton): 19%
[4]; 0.15 μM ABT-263, 3 hr, irrespective of JAK2 mutational status
  Bim binding to Bcl-XL: displaced
[5]
  drug-drug interaction (Bliss additivity): Synergistic interactions

## CC(C)(C)c1nc2c3cc[nH]c(=O)c3c3cc(F)ccc3c2[nH]1 [JAKi-I, JAK inhibitor I]
[6]; 24-hr time course
  Mcl-1 protein level: sharply declined
[6]; HEL, 1 uM Jaki-I, 2 hr
  Mcl-1 protein (% control): 62 % control
[6]; HEL, 1 uM Jaki-I, 6 hr
  Mcl-1 protein (% control): 45 % control
[6]; HEL, 1 uM Jaki-I, 24 hr
  Mcl-1 protein (% control): 42 % control
[6]; K562, 1 uM Jaki-I, 2 hr
  Mcl-1 protein (% control): 100 % control
[6]; K562, 1 uM Jaki-I, 6 hr
  Mcl-1 protein (% control): 93 % control
[6]; K562, 1 uM Jaki-I, 24 hr
  Mcl-1 protein (% control): 93 % control
[6]; MV4:11, 1 uM Jaki-I, 2 hr
  Mcl-1 protein (% control): 75 % control
[6]; MV4:11, 1 uM Jaki-I, 6 hr
  Mcl-1 protein (% control): 74 % control
[6]; MV4:11, 1 uM Jaki-I, 24 hr
  Mcl-1 protein (% control): 65 % control
[6]; SET-2, 1 uM Jaki-I, 2 hr
  Mcl-1 protein (% control): 68 % control
[6]; SET-2, 1 uM Jaki-I, 6 hr
  Mcl-1 protein (% control): 50 % control
[6]; SET-2, 1 uM Jaki-I, 24 hr
  Mcl-1 protein (% control): 35 % control
[6]; UKE-1, 1 uM Jaki-I, 2 hr
  Mcl-1 protein (% control): 50 % control
[6]; UKE-1, 1 uM Jaki-I, 6 hr
  Mcl-1 protein (% control): 25 % control
[6]; UKE-1, 1 uM Jaki-I, 24 hr
  Mcl-1 protein (% control): 22 % control
[6]; in the presence of cycloheximide (data not shown)
  Mcl-1 protein stability: not altered
[7]
  Ki: 2.11 µM
[8]
  Ki: > 2.65 µM
[9]; 1 μM, 1 hr, serum-free, only in JAK2 V617F lines (SET-2, UKE-1, HEL), not K562, MV4;11
  constitutive STAT3/5 phosphorylation: inhibited
[9]; UKE-1 (JAK2 V617F) cells, 10 min
  phosphorylation of both STAT3 and STAT5: rapid, dose-dependent inhibition
[1]
  caspase-3 activity, single agent: neither JAKi-I nor ABT-263 alone induced caspase-3 activity
[10]
  Ki: > 5.41 µM
[11]
  Ki: 0.028 µM and 0.0295 µM
[12]
  Ki: > 5.01 µM
[13]
  Ki: 0.626 µM
[14]
  Ki: > 3.63 µM
[15]
  Ki: > 3.24 µM
[16]
  Ki: > 2.59 µM
[4]; 1 μM JAKi-I, 6 hr, HEL and K562 lysates
  abundance of total Bim protein: not altered
[4]; 1 μM JAKi-I, 6 hr, in the presence of the JAK2 V617F mutation
  Bim in Bcl-XL immunoprecipitates: enriched
